Here are results for one molecule from ChEMBL document CHEMBL5223091, “Targeting the Mitotic Kinesin KIF18A in Chromosomally Unstable Cancers: Hit Optimization Toward an In Vivo Chemical Probe” (J Med Chem, 2022).

SMILES strings stand for the structures. In brackets after ≈: the same amount, converted by molar mass. Activity calls are given as the source filed them. The rule behind the calls is not given here.

The nature of data set [1]: Kinetic solubility of compound at pH 2. In kind it is physicochemical. The note with it: buffer, read-out: Kinetic_solubility.
Data set [2] is described as follows: Cmax in CD-1 mouse at 1 mg/kg, iv and 10 mg/kg, po. In kind it is ADME, organism-based. Details: dose 10 mg/kg, route po. As to conditions: in vivo.
The nature of data set [3]: Plasma concentration in CD-1 mouse at 100 mg/kg, po measured after 24 hrs. In kind it is ADME, organism-based.
Data set [4] in a line: Half life in CD-1 mouse at 1 mg/kg, iv and 10 mg/kg, po. As to conditions: in vivo. The format is ADME, organism-based.
The nature of data set [5]: Unbound fraction in CD-1 mouse plasma xenografted with human OVCAR-3 cells at 100 mg/kg, ip by LC-MS/MS analysis. In kind it is ADME, organism-based.
Data set [6] relates to OVCAR-3. The data set is described as follows: Antimitotic activity in human OVCAR-3 cells xenografted in CD-1 mouse assessed as time prolongation of mitotic arrest per day at 100 mg/kg, po. In kind it is functional.
Data set [7] is described as follows: Metabolic stability in mouse liver microsomes assessed as intrinsic clearance at 0.5 uM incubated upto 40 mins by LCMS analysis. In kind it is ADME, Microsome. As to conditions: read-out: CLH.
The nature of data set [8]: Cmax in CD-1 mouse xenografted with human OVCAR-3 cells at 100 mg/kg, po by LC-MS/MS analysis. The format is ADME, organism-based. On the set-up: dose 100 mg/kg, route po. The note with it: in vivo.
Data set [9] is described as follows: AUC (0 to 24 hrs) in CD-1 mouse xenografted with human OVCAR-3 cells at 100 mg/kg, po by LC-MS/MS analysis. The format is ADME, organism-based. On the set-up: dose 100 mg/kg, route po. As to conditions: in vivo.
A short description of data set [10]: Kinetic solubility of compound in FaSSIF. In kind it is ADME. The note with it: read-out: Kinetic_solubility.
The nature of data set [11]: Unbound fraction in CD-1 mouse plasma xenografted with human OVCAR-3 cells at 100 mg/kg, po by LC-MS/MS analysis. The format is ADME, organism-based.
The target of data set [12] is T1, Kinesin-like protein KIF18A (Mus musculus, UniProt Q91WD7).
T1 sequence (Q91WD7 whole entry): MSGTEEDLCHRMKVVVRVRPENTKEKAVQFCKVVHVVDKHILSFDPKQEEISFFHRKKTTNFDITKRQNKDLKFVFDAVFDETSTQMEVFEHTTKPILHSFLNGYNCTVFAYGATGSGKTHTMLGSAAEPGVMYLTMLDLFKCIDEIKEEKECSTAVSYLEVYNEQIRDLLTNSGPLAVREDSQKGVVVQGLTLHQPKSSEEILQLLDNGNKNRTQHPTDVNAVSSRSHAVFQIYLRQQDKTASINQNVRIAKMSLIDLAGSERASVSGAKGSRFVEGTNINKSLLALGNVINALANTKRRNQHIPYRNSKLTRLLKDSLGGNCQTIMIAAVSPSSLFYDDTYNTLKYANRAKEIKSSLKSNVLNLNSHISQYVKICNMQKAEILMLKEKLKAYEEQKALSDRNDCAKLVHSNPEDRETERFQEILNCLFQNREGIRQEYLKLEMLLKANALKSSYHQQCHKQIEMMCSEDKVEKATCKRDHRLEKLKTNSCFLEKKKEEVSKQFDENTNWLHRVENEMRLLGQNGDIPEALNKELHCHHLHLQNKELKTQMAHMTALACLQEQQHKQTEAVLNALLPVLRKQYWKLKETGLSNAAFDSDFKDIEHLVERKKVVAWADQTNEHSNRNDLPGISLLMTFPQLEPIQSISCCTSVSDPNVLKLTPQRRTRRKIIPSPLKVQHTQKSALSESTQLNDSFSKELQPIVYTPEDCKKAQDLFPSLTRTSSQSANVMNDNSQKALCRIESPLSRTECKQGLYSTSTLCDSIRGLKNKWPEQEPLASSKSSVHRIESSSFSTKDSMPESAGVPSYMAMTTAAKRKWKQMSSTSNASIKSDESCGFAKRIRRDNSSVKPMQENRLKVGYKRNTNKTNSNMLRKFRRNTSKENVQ
The data set can be described thus: Inhibition of recombinant His-tagged mouse KIF18A expressed in Trichoplusia ni insect cells assessed as inhibition of microtubule-stimulated ATPase activity preincubated for 30 mins followed by ATP addition and further incubated for 15 mins by ADP-Glo reagent based assay. Details: species or system Insect cell.

The test system of data set [13] is OVCAR-3. The data set is described as follows: Antimitotic activity in human OVCAR-3 cells xenografted in CD-1 mouse assessed as increase in phospho-histone H3 positive cells in tumor at 100 mg/kg, po measured after 8 hrs. In kind it is functional, organism-based.
The subject of data set [14] is OVCAR-3. The data set is described as follows: Induction of mitotic arrest in human OVCAR-3 cells assessed as p-histone H3 incubated for 24 hrs by mitotic - imaging assay. In kind it is functional, cell-based. The note with it: OVCAR-3, 24 h.
A short description of data set [15]: Metabolic stability in human liver microsomes assessed as intrinsic clearance at 0.5 uM incubated upto 40 mins by LCMS analysis. In kind it is ADME, Microsome. As to conditions: read-out: CLH.

On to `CC(C)(C)NS(=O)(=O)c1cccc(NC(=O)c2ncc(NS(C)(=O)=O)nc2N2CCC3(CC2)CC3)n1`, for which the solubility kinetic turned out to be 500 µM (≈ 269 µg/mL) in data set [1] and 209 µM (≈ 112 µg/mL) in data set [10]. For the same molecule, the Cmax in data set [2] worked out at 2150 nM; in data set [8], 6100 nM. In data set [3], this molecule came in with a concentration at 24 h of 30 nM. The same molecule had a half-life in data set [4] of 1.7 h. In addition, the fraction unbound in [5] and in data set [11] was 0.022 each time. In addition, the Time result in data set [6] was “>=12 hr”. For the same molecule, the microsomal CLint at 0.5 µM was 64 µL/min/mg in data set [7] and 127 µL/min/mg in [15]. Further, in [9], the AUC(0-t) turned out to be 25.7 µM·h. Also, the IC50 in data set [12] was 77 nM. Also, the outcome in [13] was Active. The 50% effective concentration (EC50) in [14] came to 32 nM.
